Experimental findings from US5229367A, “Antiinflammatory peptide derived from human lipocortin V” (Sclavo S.p.A., priority 1991, dated 1993) are described below.

In brackets after ≈: the same amount, converted by molar mass. Read-outs that look alike come from different tables or passages of the source. Peptide text beside a SMILES is read from it.

In assay [1] the test system is rat peritoneal leukocytes. The assay is described as follows: Inhibition of zymosan-stimulated prostaglandin E2 release in rat peritoneal leukocytes (radioimmunoassay). The class given is cell-based. To be noted: peptide 100 μg/ml. The procedure:
Rat peritoneal leukocytes were collected and purified as described by Parente and Flower (supra), then suspended in Krebs solution oxygenated with Carbogen at a final concentration of 1.10^6 cells/ml. Samples (1 ml) of said suspension were incubated in a thermostatic bath at 37° C. for 30 min in the presence (100 μg/ml) and in the absence (control) of the synthetic peptide 204-212. The incubation was maintained for a further 60 min at 37° C. after addition to each culture of 200 μg/ml Zymosan (activated by opsonization, i.e. incubated with mouse serum for 30 min at 37° C.). At the end of this time the cells were separated from the suspension by centrifugation at 10,000 rpm for 5 min using an Eppendorf centrifuge model 5414. The supernatants thus recovered were analysed by radioimmunoassay to monitor the prostaglandin E2 (PGE2) levels.

In assay [2] the target is T1, phospholipase A2 (pig pancreas phospholipase preparation) (Sus scrofa, UniProt P00592).
T1 construct: pig pancreas phospholipase preparation from Sigma; purchased Sigma; host or cells: pig pancreas (tissue-derived preparation)
The assay is described as follows: Inhibition of PLA2 induced contractions in rat stomach strip. To be noted: peptide 20 μg/ml, 30 min; PLA2 4.4 μg/ml; mean of four samples. On the procedure: The rat stomach bottom strip was prepared as originally described by Vane (Br. J. Pharmacol., 12: 344-349, 1957) and suspended in a small bath for resected organs, thermostated at 37° in Krebs solution. After two hours stabilisation in said bath, the stomach reacts to phospholipase A2 stimulation (pig pancreas phospholipase preparation from Sigma) by contracting. These contractions are recorded by means of an isotonic transductor on recorder (Firm Basile). The contracting effect of the PLA2 is concentration-dependent and a concentration of 4.4 μg/ml was used in the experiments with the peptide 204-212. The experiments were carried out as follows:
a) estimation of the stomach contracting effect by the PLA2 at the final concentration of 4.4 μg/ml (control value)
b) after thoroughly washing the strip, peptide (I) was added at the concentration of 20 μg/ml and the effect of the PLA2 was estimated again after 30 min (sample).

Assay [3] deals with PLA2 induced oedema in rat paw. Description: Inhibition of PLA2 induced oedema in rat paw. To be noted: 2 mg/Kg (400 μg) co-injected with 5 μg PLA2 into paw, mean of five. The class given is in vivo. On the procedure: The oedema induced by PLA2 in the rat paw was generated according to the modified technique of Marshall et al. (J. Cell Biochem. suppl. 12 E: S325, 1985). Practically, the enzyme phospholipase A2 (Naja Mocambique), with a specific activity of about 400 units/mg protein, was dissolved into a physiological solution comprising calcium chloride 1 mM to a final concentration of 100 μg/ml. Thereafter samples (0.5 ml) of said solution were diluted 1:1 (v/v) either with a physiological solution as such, or with a physiological solution comprising the synthetic peptide 204-212 at a concentration of 8 mg/ml. The thus obtained solutions were incubated at 37° C. for 15 min. At the end of this incubation period, 0.1 ml of the solutions either comprising 5 μg of PLA2 only, or additionally 400 μg of the synthetic peptide, were injected into the right back paw of male Wistar rats of 200 g weight (thus the synthetic peptide 204- 212 was given at a 2 mg/Kg dose). The oedema in the paw was measured by means of a water plesthysomometer 30 and 60 min after the injection. The results reported in Table 4 confirm the in vivo PLA2 inhibiting effect of the peptide 204-212.

The subject of assay [4] is carrageenin induced oedema in rat paw. The assay is described as follows: Inhibition of carrageenin induced oedema in rat paw. Format: in vivo. To be noted: for Oedema 3 hours Inhibition %: 3 hours after carrageenin; for Oedema 4 hours Inhibition %: 4 hours after carrageenin. On the procedure: The carrageenin induced oedema in the rat paw was generated as disclosed by Parente et al. (Eur. J. Pharmacol., 99: 233-239, (1984). Practically 0.1 ml physiological solution comprising 1% (w/v) lambda carrageenin (Sigma) were injected subcutaneously into the right back paw of male Wistar rats weighing 200 g pretreated as follows: 5 rats (control) were locally inoculated with 100 μl sterile physiological solution; 5 rats were locally injected with 100 μl physiological solution comprising […] (respectively corresponding to a dose of 2 and 0.5 mg/Kg) synthetic peptide 204-212. The oedema was measured with a water plethysmometer 3 and 4 hours after the carrageenin injection. The results in Table 5 show an inhibition of the oedema due to the peptide 204-212 and moreover that the extent of the inhibition is dose-dependent.
Background: Carrageenan injected into the paw causes an acute inflammation.

The test system of a further assay is human fibroblasts. The conditions noted are these: for Inhibition %: PGE2 release, bradykinin 1 μM.

T1 sequence (P00592 23-146): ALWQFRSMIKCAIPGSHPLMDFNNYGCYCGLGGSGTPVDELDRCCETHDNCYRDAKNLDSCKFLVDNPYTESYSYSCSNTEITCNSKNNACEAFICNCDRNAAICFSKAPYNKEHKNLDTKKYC
Protocol for human fibroblasts: Thereafter 0.2 ml of said suspension were placed into each well of a 96 flat bottomed well Cluster dish (firm Costar) and incubated at 37° C. for 72 hours. At the end of said period the cells were washed three times with 0.2 ml medium without serum and then incubated for 60 min at 37° C. as follows:
one part in 0.2 ml DMEM medium without bovine foetal serum (control);
Bradykinin (Sigma) was added thereafter to the final concentration of 1 μM to all the samples, and the incubation was maintained for a further 30 min. Finally the determination of PGE2 in the cell-free supernatants was carried out by making use of a radioimmunoassay.

For the compound `CC(C)C[C@H](NC(=O)[C@H](Cc1c[nH]cn1)NC(=O)[C@@H](N)CO)C(=O)N[C@@H](CCCNC(=N)N)C(=O)N[C@@H](CCCCN)C(=O)N[C@H](C(=O)N[C@@H](Cc1ccccc1)C(=O)N[C@@H](CC(=O)O)C(=O)N[C@@H](CCCCN)C(=O)O)C(C)C` [Peptide 204-212, H-Ser-His-Leu-Arg-Lys-Val-Phe-Asp-Lys-X] (H-SHLRKVFDK-OH), the Inhibition % in assay [1] (PGE2 release) amounted to 49.8%; with human fibroblasts (1 ng/ml), 0%; with human fibroblasts (10 ng/ml), 16 ± 2%; in the assay on human fibroblasts (100 ng/ml), 41 ± 7%; in the assay on human fibroblasts (1 μg/ml), 43 ± 4%; in the assay on human fibroblasts (10 μg/ml) it was 63 ± 7%. The same compound yielded an Inhibition % in the assay with human fibroblasts (100 μg/ml) of 94 ± 6%. Besides, the PGE2 in assay [1] (200 μg/ml opsonized Zymosan, supernatant PGE2 level, mean of three samples plus standard error, control 253.7 + 22.8) was 129.0 + 16.9. Moreover, in assay [2], the inhibition (as a rule, the relative decrease from the control value, in per cent) at 20 µg/mL amounted to 60.5%. Further, in assay [3] (30 min after injection), the “Oedema 30 min” value is recorded as 25.4 ± 7.7. In assay [3] (60 min after injection), the “Oedema 60 min” value was found to be 25.4 ± 7.8. The “Oedema 3 hours Inhibition %” value in assay [4] (0.5 mg/Kg local injection) is on record as 22.7 ± 8.3%; in assay [4] (2.0 mg/Kg local injection) it was 37.0 ± 3.3%. Further, the figures for the “Oedema 4 hours Inhibition %” value in assay [4] (0.5 mg/Kg local injection) and in assay [4] (2.0 mg/Kg local injection) were 13.7 ± 5.1% and 37.5 ± 10.1%, respectively. The “ED 50” value in the assay with human fibroblasts was found to be 1.13 µg/mL (≈ 1 µM).
